{"source": "patent US8852554B2", "about": "“Radiolabelled PDE10 ligands” (Janssen Pharmaceutica NV, priority 2009, dated 2014)", "assay": "Biodistribution studies of the 18F tracers in rats", "type": "in vivo, male Wistar rats", "conditions": "rat", "procedure": "Biodistribution studies were carried out in healthy male Wister rats (body weight 200-500 g) at 2 min, 30 min and 60 min post injection (p.i.) (n=3/time point). For |^18F|B-4 only the 2 min and 30 min time points were studied. […] Blood and major organs were collected in tared tubes and weighed. The radioactivity in blood, organs and other body parts was measured using an automated gamma counter. The distribution of radioactivity in different parts of the body at different time points p.i. of the tracer was calculated and expressed as percentage of injected dose (% ID), and as percentage of injected dose per gram tissue (% ID/g) for the selected organs. % ID is calculated as cpm in organ/total cpm recovered. For calculation of total radioactivity in blood, blood mass was assumed to be 7% of the body mass.", "note": "Values joined by “and” are separate entries in the source; they are usually repeats but may differ in a detail not shown here. Identical values can stand only once.", "data": [{"compound": "Cc1cccc(COc2ccc(-c3nn(CC[18F])cc3-c3ccncc3)cc2)n1", "note": "[[^18F]B-1]", "values": [{"measurement": "retention in the PDE10A-rich region striatum", "setting": "biodistribution studies", "result": "no significant retention"}, {"measurement": "2 min/30 min ratios of % ID/g (normalized for body weight), all brain regions", "setting": "i.v.", "result": "≥ 2.49"}, {"measurement": "Clearance, 2 min/30 min ratio of % ID/g (normalized for body weight), Blood", "setting": "i.v.", "result": 1.65}, {"measurement": "Clearance, 2 min/30 min ratio of % ID/g (normalized for body weight), Cerebellum", "setting": "i.v.", "result": 4.01}, {"measurement": "Clearance, 2 min/30 min ratio of % ID/g (normalized for body weight), Cerebrum total", "setting": "i.v.", "result": 2.88}, {"measurement": "Clearance, 2 min/30 min ratio of % ID/g (normalized for body weight), Cortex", "setting": "i.v.", "result": 3.47}, {"measurement": "Clearance, 2 min/30 min ratio of % ID/g (normalized for body weight), Hippocampus", "setting": "i.v.", "result": 3.06}, {"measurement": "Clearance, 2 min/30 min ratio of % ID/g (normalized for body weight), Rest of cerebrum", "setting": "i.v.", "result": 2.86}, {"measurement": "Clearance, 2 min/30 min ratio of % ID/g (normalized for body weight), Striatum", "setting": "i.v.", "result": 2.49}, {"measurement": "Clearance, 2 min/60 min ratio of % ID/g (normalized for body weight), Blood", "setting": "i.v.", "result": 1.83}, {"measurement": "Clearance, 2 min/60 min ratio of % ID/g (normalized for body weight), Cerebellum", "setting": "i.v.", "result": 6.60}, {"measurement": "Clearance, 2 min/60 min ratio of % ID/g (normalized for body weight), Cerebrum total", "setting": "i.v.", "result": 3.60}, {"measurement": "Clearance, 2 min/60 min ratio of % ID/g (normalized for body weight), Cortex", "setting": "i.v.", "result": 5.55}, {"measurement": "Clearance, 2 min/60 min ratio of % ID/g (normalized for body weight), Hippocampus", "setting": "i.v.", "result": 3.63}, {"measurement": "Clearance, 2 min/60 min ratio of % ID/g (normalized for body weight), Rest of cerebrum", "setting": "i.v.", "result": 3.29}, {"measurement": "Clearance, 2 min/60 min ratio of % ID/g (normalized for body weight), Striatum", "setting": "i.v.", "result": 3.41}, {"measurement": "% ID, Carcass", "setting": "i.v., 2 min p.i.", "result": "33.12 ± 2.3", "unit": "% ID"}, {"measurement": "% ID, Cerebellum", "setting": "i.v., 2 min p.i.", "result": "0.09 % ID and 0.091 ± 0.018 % ID"}, {"measurement": "% ID, Cerebrum total", "setting": "i.v., 2 min p.i.", "result": "0.49 % ID and 0.490 ± 0.067 % ID"}, {"measurement": "% ID, Cortex", "setting": "i.v., 2 min p.i.", "result": "0.069 ± 0.008", "unit": "% ID"}, {"measurement": "% ID, Heart", "setting": "i.v., 2 min p.i.", "result": "0.60 ± 0.1", "unit": "% ID"}, {"measurement": "% ID, Hippocampus", "setting": "i.v., 2 min p.i.", "result": "0.018 ± 0.004", "unit": "% ID"}, {"measurement": "% ID, Intestines", "setting": "i.v., 2 min p.i.", "result": "10.79 ± 1.5", "unit": "% ID"}, {"measurement": "% ID, Kidneys", "setting": "i.v., 2 min p.i.", "result": "4.24 ± 0.5", "unit": "% ID"}, {"measurement": "% ID, Liver", "setting": "i.v., 2 min p.i.", "result": "41.94 ± 2.2", "unit": "% ID"}, {"measurement": "% ID, Lungs", "setting": "i.v., 2 min p.i.", "result": "0.92 ± 0.2", "unit": "% ID"}, {"measurement": "% ID, Rest of cerebrum", "setting": "i.v., 2 min p.i.", "result": "0.367 ± 0.054", "unit": "% ID"}, {"measurement": "% ID, Spleen + Pancreas", "setting": "i.v., 2 min p.i.", "result": "1.92 ± 0.2", "unit": "% ID"}, {"measurement": "% ID, Stomach", "setting": "i.v., 2 min p.i.", "result": "3 % ID and 3.09 ± 0.1 % ID"}, {"measurement": "% ID, Striatum", "setting": "i.v., 2 min p.i.", "result": "0.036 ± 0.012", "unit": "% ID"}, {"measurement": "% ID, Urine", "setting": "i.v., 2 min p.i.", "result": "0.09 ± 0.1", "unit": "% ID"}, {"measurement": "% ID/g normalized for body weight, Blood", "setting": "i.v., 2 min p.i.", "result": "0.06 ± 0.01", "unit": "% ID/g × body wt. in kg"}, {"measurement": "% ID/g normalized for body weight, Cerebellum", "setting": "i.v., 2 min p.i.", "result": "0.164 ± 0.01", "unit": "% ID/g × body wt. in kg"}, {"measurement": "% ID/g normalized for body weight, Cerebrum + Cerebellum", "setting": "i.v., 2 min p.i.", "result": "0.13 ± 0.01", "unit": "% ID/g × body wt. in kg"}, {"measurement": "% ID/g normalized for body weight, Cerebrum total", "setting": "i.v., 2 min p.i.", "result": "0.120 ± 0.01", "unit": "% ID/g × body wt. in kg"}, {"measurement": "% ID/g normalized for body weight, Cortex", "setting": "i.v., 2 min p.i.", "result": "0.199 ± 0.04", "unit": "% ID/g × body wt. in kg"}, {"measurement": "% ID/g normalized for body weight, Heart", "setting": "i.v., 2 min p.i.", "result": "0.21 ± 0.02", "unit": "% ID/g × body wt. in kg"}, {"measurement": "% ID/g normalized for body weight, Hippocampus", "setting": "i.v., 2 min p.i.", "result": "0.083 ± 0.01", "unit": "% ID/g × body wt. in kg"}, {"measurement": "% ID/g normalized for body weight, Kidneys", "setting": "i.v., 2 min p.i.", "result": "0.47 ± 0.05", "unit": "% ID/g × body wt. in kg"}, {"measurement": "% ID/g normalized for body weight, Liver", "setting": "i.v., 2 min p.i.", "result": "0.92 ± 0.05", "unit": "% ID/g × body wt. in kg"}, {"measurement": "% ID/g normalized for body weight, Lungs", "setting": "i.v., 2 min p.i.", "result": "0.19 ± 0.08", "unit": "% ID/g × body wt. in kg"}, {"measurement": "% ID/g normalized for body weight, Rest of cerebrum", "setting": "i.v., 2 min p.i.", "result": "0.111 ± 0.00", "unit": "% ID/g × body wt. in kg"}, {"measurement": "% ID/g normalized for body weight, Spleen + Pancreas", "setting": "i.v., 2 min p.i.", "result": "0.40 ± 0.03", "unit": "% ID/g × body wt. in kg"}, {"measurement": "% ID/g normalized for body weight, Striatum", "setting": "i.v., 2 min p.i.", "result": "0.175 ± 0.02", "unit": "% ID/g × body wt. in kg"}, {"measurement": "% ID/g, Blood", "setting": "i.v., 2 min p.i.", "result": "0.21 ± 0.02", "unit": "% ID/g"}, {"measurement": "% ID/g, Cerebellum", "setting": "i.v., 2 min p.i.", "result": "0.607 ± 0.019", "unit": "% ID/g"}, {"measurement": "% ID/g, Cerebrum + Cerebellum", "setting": "i.v., 2 min p.i.", "result": "0.47 ± 0.03", "unit": "% ID/g"}, {"measurement": "% ID/g, Cerebrum total", "setting": "i.v., 2 min p.i.", "result": "0.444 ± 0.026", "unit": "% ID/g"}, {"measurement": "% ID/g, Cortex", "setting": "i.v., 2 min p.i.", "result": "0.734 ± 0.148", "unit": "% ID/g"}, {"measurement": "% ID/g, Heart", "setting": "i.v., 2 min p.i.", "result": "0.76 ± 0.09", "unit": "% ID/g"}, {"measurement": "% ID/g, Hippocampus", "setting": "i.v., 2 min p.i.", "result": "0.307 ± 0.041", "unit": "% ID/g"}, {"measurement": "% ID/g, Liver", "setting": "i.v., 2 min p.i.", "result": "3.40 ± 0.31", "unit": "% ID/g"}, {"measurement": "% ID/g, Lungs", "setting": "i.v., 2 min p.i.", "result": "0.69 ± 0.34", "unit": "% ID/g"}, {"measurement": "% ID/g, Rest of cerebrum", "setting": "i.v., 2 min p.i.", "result": "0.411 ± 0.023", "unit": "% ID/g"}, {"measurement": "% ID/g, Spleen + Pancreas", "setting": "i.v., 2 min p.i.", "result": "1.47 ± 0.15", "unit": "% ID/g"}, {"measurement": "% ID/g, Striatum", "setting": "i.v., 2 min p.i.", "result": "0.648 ± 0.075", "unit": "% ID/g"}, {"measurement": "striatum/blood ratio (from % ID/g normalized for body weight)", "setting": "i.v., 2 min p.i.", "result": 3.10}, {"measurement": "striatum/cerebellum ratio (from % ID/g normalized for body weight)", "setting": "i.v., 2 min p.i.", "result": 1.07}, {"measurement": "striatum/cortex ratio (from % ID/g normalized for body weight)", "setting": "i.v., 2 min p.i.", "result": 0.88}, {"measurement": "striatum/hippocampus ratio (from % ID/g normalized for body weight)", "setting": "i.v., 2 min p.i.", "result": 2.11}, {"measurement": "total initial brain uptake", "setting": "i.v., 2 min p.i.", "result": 0.59, "unit": "% ID"}, {"measurement": "% ID, Blood", "setting": "i.v., 30 min p.i.", "result": "2.40 ± 0.4", "unit": "% ID"}, {"measurement": "% ID, Carcass", "setting": "i.v., 30 min p.i.", "result": "25.50 ± 2.1", "unit": "% ID"}, {"measurement": "% ID, Cerebellum", "setting": "i.v., 30 min p.i.", "result": "0.028 ± 0.000", "unit": "% ID"}, {"measurement": "% ID, Cerebrum total", "setting": "i.v., 30 min p.i.", "result": "0.172 ± 0.012", "unit": "% ID"}, {"measurement": "% ID, Cortex", "setting": "i.v., 30 min p.i.", "result": "0.026 ± 0.004", "unit": "% ID"}, {"measurement": "% ID, Heart", "setting": "i.v., 30 min p.i.", "result": "0.21 ± 0.0", "unit": "% ID"}, {"measurement": "% ID, Hippocampus", "setting": "i.v., 30 min p.i.", "result": "0.006 ± 0.000", "unit": "% ID"}, {"measurement": "% ID, Intestines", "setting": "i.v., 30 min p.i.", "result": "14.67 ± 3.3", "unit": "% ID"}, {"measurement": "% ID, Kidneys", "setting": "i.v., 30 min p.i.", "result": "1.44 ± 0.2", "unit": "% ID"}, {"measurement": "% ID, Liver", "setting": "i.v., 30 min p.i.", "result": "45.29 ± 5.2", "unit": "% ID"}, {"measurement": "% ID, Lungs", "setting": "i.v., 30 min p.i.", "result": "0.42 ± 0.1", "unit": "% ID"}, {"measurement": "% ID, Rest of cerebrum", "setting": "i.v., 30 min p.i.", "result": "0.127 ± 0.010", "unit": "% ID"}, {"measurement": "% ID, Spleen + Pancreas", "setting": "i.v., 30 min p.i.", "result": "0.57 ± 0.2", "unit": "% ID"}, {"measurement": "% ID, Stomach", "setting": "i.v., 30 min p.i.", "result": "10 % ID and 9.73 ± 1.7 % ID"}, {"measurement": "% ID, Striatum", "setting": "i.v., 30 min p.i.", "result": "0.013 ± 0.001", "unit": "% ID"}, {"measurement": "% ID, Urine", "setting": "i.v., 30 min p.i.", "result": "0.29 ± 0.0", "unit": "% ID"}, {"measurement": "% ID/g normalized for body weight, Blood", "setting": "i.v., 30 min p.i.", "result": "0.03 ± 0.01", "unit": "% ID/g × body wt. in kg"}]}]}
